In ChEMBL document CHEMBL3232884, “Design, synthesis, and biological evaluation of novel pyridine-bridged analogues of combretastatin-A4 as anticancer agents” (J Med Chem, 2014):
Calls of active or inactive are those of the source. No cut-off for these calls is given here.

Columns and labels:
A549 = assay: Cytotoxicity against human A549 cells after 72 hrs by resazurin based fluorescence assay; assay type: functional, cell-based
HeLa [1] = assay: Cytotoxicity against human HeLa cells after 72 hrs by resazurin based fluorescence assay; assay type: functional, cell-based
MDA-MB-231 [2] = assay: Cytotoxicity against human MDA-MB-231 cells after 72 hrs by resazurin based fluorescence assay; assay type: functional, cell-based
Tubulin (Bos taurus) [3] = molecular target: T1, Tubulin (Bos taurus) (UniProt Q6B856+Q862L2+Q862F3); assay: Inhibition of bovine brain tubulin polymerization at 10 uM after 60 mins by spectrophotometric analysis
Chorioallantoic membrane = assay: Antiangiogenic activity in chicken embryo chorioallantoic membrane model assessed as inhibition of bFGF/VEGF-induced new vessel growth; assay type: functional, tissue-based; conditions: Gallus gallus
Tubulin (Bos taurus) [4] = molecular target: T1, Tubulin (Bos taurus); assay: Inhibition of bovine brain tubulin polymerization at 1 uM after 60 mins by spectrophotometric analysis
Tubulin (Homo sapiens) = Tubulin (Homo sapiens) (UniProt P68371+Q9H4B7+P0DPH7+P68366+Q13509+Q71U36+P04350+Q3ZCM7+P07437+P68363+Q9BQE3+Q6PEY2+Q13885+Q9BVA1+Q9BUF5); assay: Displacement of colchicine from tubulin (unknown origin) at 0.1 to 125 uM after 1 hr by HPLC-MS/MS analysis; assay type: protein-complex assay
[5] = Plasma concentration in C57BL/6 mouse at 5 mg/kg, po after 1 hr; assay type: ADME, organism-based; parameters: dose 5 mg/kg, route oral
Tubulin (Bos taurus) [6] = molecular target: T1, Tubulin (Bos taurus); assay: Induction of bovine brain tubulin polymerization at 1 uM after 60 mins by spectrophotometric analysis
MDA-MB-231 [7] = assay: Antimicrotubule activity in human MDA-MB-231 cells assessed as reduction of interphase microtubule network at 1 uM after 24 hrs by indirect immunofluorescence technique; assay type: functional, cell-based
HeLa [8] = assay: Antimicrotubule activity in human HeLa cells assessed as reduction of interphase microtubule network at 1 uM after 24 hrs by indirect immunofluorescence technique; assay type: functional, cell-based
HeLa [9] = assay: Cell cycle arrest in human HeLa cells assessed as accumulation at G0/G1 phase at 1 uM after 24 hrs using propidium iodide staining by flow cytometry (reference value: 61.60%); assay type: functional
[10] = Plasma concentration in C57BL/6 mouse at 5 mg/kg, po after 3 hrs; assay type: ADME, organism-based; parameters: dose 5 mg/kg, route oral

| Compound | IC50 (A549; Homo sapiens, A549, 72 h) | IC50 (HeLa [1]; Homo sapiens, HeLa, 72 h) | IC50 (MDA-MB-231 [2]; Homo sapiens, MDA-MB-231, 72 h) | also measured |
| --- | --- | --- | --- | --- |
| COc1cc(-c2ccnc(-c3cc(OC)c(OC)c(OC)c3)c2)cc(OC)c1OC | 7.86 µM | 0.79 µM | 2.63 µM | – |
| COc1ccc(-c2cccc(Br)n2)cc1 | 2 µM | 2 µM | 10 µM | – |
| COc1ccc(-c2cccc(-c3ccc(OC)cc3)n2)cc1 | > 100 µM | 2 µM | 9 µM | – |
| COc1cc(-c2cccc(Br)n2)cc(OC)c1OC | 9 µM | 12 µM | 6 µM | – |
| COc1ccc(-c2cccc(-c3ccc(OC)c(O)c3)n2)c(OC)c1 [listing 1 of 3 here] | – | – | – | inhibition (Tubulin (Bos taurus) [3]): 57%; growth inhibition (GI) (Chorioallantoic membrane): Active; inhibition (Tubulin (Bos taurus) [4]): inactive; inhibition (Tubulin (Homo sapiens)): Active |
| COc1ccc(-c2cccc(-c3ccccc3OC)n2)c(OC)c1 | > 50 µM | > 25 µM | > 25 µM | – |
| COc1ccc(-c2cccc(-c3ccc(O)cc3)n2)cc1OC | > 100 µM | 0.86 µM | > 50 µM | – |
| COc1ccc(-c2cccc(-c3cc(OC)c(OC)c(OC)c3)n2)cc1OC | > 50 µM | 0.026 µM | 2.49 µM | – |
| COc1cccc(-c2cccc(-c3ccc(OC)cc3OC)n2)c1 | 0.56 µM | 0.067 µM | 9.02 µM | – |
| COc1ccc(-c2ccnc(-c3ccc(OC)cc3OC)c2)c(OC)c1 | > 50 µM | > 25 µM | > 50 µM | – |
| COc1ccc(-c2cccc(-c3c(OC)cccc3OC)n2)c(OC)c1 | > 100 µM | > 50 µM | > 100 µM | – |
| COc1cc(OC)cc(-c2cccc(-c3ccc(OC)cc3OC)n2)c1 | > 25 µM | > 50 µM | > 25 µM | – |
| COc1ccc(-c2cccc(Br)n2)c(OC)c1 | > 50 µM | > 50 µM | > 100 µM | – |
| COc1ccc(-c2cccc(-c3ccc(O)cc3)n2)c(OC)c1 | 4.22 µM | > 100 µM | 17.2 µM | – |
| COc1cc(-c2ccc(Br)cn2)cc(OC)c1OC | > 25 µM | 14 µM | 12.1 µM | – |
| COc1ccc(-c2cccc(-c3ccc(OC)c(OC)c3)n2)cc1 | > 25 µM | > 25 µM | > 25 µM | – |
| COc1cc(-c2cccc(-c3ccc(O)cc3)n2)cc(OC)c1OC | > 25 µM | 8 µM | 10 µM | – |

| Compound | IC50 (A549; Homo sapiens, A549, 72 h) | IC50 (HeLa [1]; Homo sapiens, HeLa, 72 h) | IC50 (MDA-MB-231 [2]; Homo sapiens, MDA-MB-231, 72 h) | also measured |
| --- | --- | --- | --- | --- |
| COc1ccc(-c2cccc(-c3cccc(OC)c3OC)n2)c(OC)c1 | > 50 µM | > 50 µM | > 50 µM | – |
| COc1ccc(-c2ccc(-c3cc(OC)c(OC)c(OC)c3)nc2)cc1OC | > 50 µM | > 25 µM | > 50 µM | – |
| COc1ccc(-c2cccc(-c3ccc(OC)c(O)c3)n2)c(OC)c1 [listing 2 of 3 here] | 0.044 µM | 0.0014 µM | 0.0046 µM | concentration at 1 h [5]: 9.2 ng/mL |
| COc1ccc(-c2ccc(-c3ccc(OC)cc3OC)nc2)c(OC)c1 | > 100 µM | > 50 µM | > 100 µM | – |
| COc1ccc(-c2cccc(Br)n2)cc1OC | > 25 µM | > 50 µM | > 25 µM | – |
| COc1ccc(-c2cccc(-c3ccc(OC)cc3OC)n2)cc1 | 0.089 µM | 0.0038 µM | 0.0031 µM | inhibition (Tubulin (Bos taurus) [3]): inactive; growth inhibition (GI) (Chorioallantoic membrane): Active; Activity (Tubulin (Bos taurus) [6]): Active; inhibition (Tubulin (Bos taurus) [4]): inactive; Activity (MDA-MB-231 [7]): Active; Activity (HeLa [8]): Active |
| COc1ccc(-c2cccc(-c3ccc(OC)c(OC)c3)n2)c(OC)c1 | > 25 µM | > 50 µM | 13 µM | – |
| COc1ccc(-c2cccc(-c3ccc(OC)c(OC)c3)n2)cc1OC | > 50 µM | > 25 µM | > 50 µM | – |
| COc1cc(-c2ccc(-c3cc(OC)c(OC)c(OC)c3)nc2)cc(OC)c1OC | > 100 µM | 2.68 µM | 11 µM | – |
| COc1ccc(-c2cccc(-c3cc(OC)c(OC)c(OC)c3)n2)cc1 | > 50 µM | > 50 µM | > 25 µM | – |
| COc1cc(-c2cccc(-c3cc(OC)c(OC)c(OC)c3)n2)cc(OC)c1OC | > 50 µM | 1 µM | 11 µM | – |
| COc1ccc(-c2cccc(-c3c(OC)cc(OC)cc3OC)n2)c(OC)c1 | > 50 µM | > 25 µM | > 50 µM | – |
| COc1ccc(/C=C\c2cc(OC)c(OC)c(OC)c2)cc1O [COMBRETASTATIN A4] | 0.0038 µM | 0.0009 µM | 0.0028 µM | inhibition (Tubulin (Bos taurus) [3]): Active; growth inhibition (GI) (Chorioallantoic membrane): Active; Activity (HeLa [9]): 37%; concentration at 1 h [5]: 2.3 ng/mL; inhibition (Tubulin (Bos taurus) [4]): 35%; Activity (MDA-MB-231 [7]): Active; Activity (HeLa [8]): Active; concentration at 3 h [10]: 2.1 ng/mL |
| COc1ccc(-c2cccc(-c3ccc(OC)c(O)c3)n2)c(OC)c1 [listing 3 of 3 here] | – | – | – | IC50 (A549; a549): 0.042 µM; IC50 (HeLa [1]; hela): 0.0026 µM; IC50 (MDA-MB-231 [2]; mda-mb-231): 0.0054 µM |
| COc1ccc(-c2cccc(-c3ccc(OC)cc3OC)n2)c(OC)c1 | 0.079 µM | 0.011 µM | 0.075 µM | – |
| COc1ccc(-c2cccc(-c3ccc(O)cc3)n2)cc1 | > 25 µM | > 50 µM | > 25 µM | – |
